ChEMBL document CHEMBL3580576, “Eremophilane Sesquiterpenes and Diphenyl Thioethers from the Soil Fungus Penicillium copticola PSU-RSPG138” (J Nat Prod, 2015)
≈ marks a conversion by molar mass, not a printed value. Calls of active or inactive are those of the source. No cut-off for these calls is given here.

Legend:
Plasmodium falciparum = assay: Antimalarial activity against multidrug-resistant Plasmodium falciparum K1 assessed as reduction in parasite growth incubated for 24 hrs by [3H]hypoxanthine incorporation based microculture radioisotope technique based method; assay type: functional, organism-based
[1] = test system: Mycobacterium tuberculosis; assay: Antimycobacterial activity against GFP expressing Mycobacterium tuberculosis H37Ra assessed as microbial growth inhibition incubated at 37 degC for 7 days by fluorescence based assay; assay type: functional
MCF7 = assay: Antiproliferative activity against human MCF7 cells assessed as reduction in cell growth incubated at 37 degC for 3 days by resazurin microplate assay; assay type: functional, cell-based
KB = assay: Antiproliferative activity against human KB cells assessed as reduction in cell growth incubated at 37 degC for 3 days by resazurin microplate assay; assay type: functional, cell-based
Vero = assay: Cytotoxicity against African green monkey Vero cells assessed as reduction in cell growth incubated at 37 degC for 4 days by fluorescence based assay; conditions: Chlorocebus sabaeus, 96 h
[2] = Plasmodium falciparum, K1, read-out: IC50
[3] = Homo sapiens, KB, 72 h, read-out: IC50
[4] = Homo sapiens, MCF7, 72 h, read-out: IC50

Structure (SMILES) | IC50 (Plasmodium falciparum; [2]) [µM] | MIC ([1]; 168 h) [µg/mL] | IC50 (MCF7; mcf7) | IC50 (Vero) [µM] | MIC [1] | IC50 (KB; [3]) [µM] | also measured
C[C@H]1[C@@H](O)O[C@@H]2O[C@@]3(C)CC[C@H]4[C@H](C)CC[C@@H]1[C@@]24OO3 [ARTENIMOL] | 0.00126 | – | – | – | – | – | –
NNC(=O)c1ccncc1 [ISONIAZID] | – | 0.094 (≈ 0.685 µM) | – | – | – | – | –
C=C(C)[C@@]12O[C@@H]1[C@@]1(C)C(=C[C@@H]2O)CC[C@@H](O)[C@@H]1C | – | – | Not Active | 24.1 | inactive | – | IC50 (KB; kb): Not Active; IC50 (Plasmodium falciparum): Not Active
C=C(C)[C@@]12O[C@@H]1[C@@]1(C)C(=CC2=O)CC[C@@H](O)[C@@H]1C | 1.53 | – | Not Active | 4.23 | inactive | 17.8 | –
C=C(C)[C@@H]1C[C@@]2(C)C(=CC1=O)CC[C@@H](O)[C@@H]2C | 39.3 | – | Not Active | 44.5 | inactive | 186 | –
C=C(C)[C@@]12O[C@@H]1[C@@]1(C)C(=CC2=O)CC[C@@H](OC(=O)Cc2ccc(O)c(Cl)c2)[C@@H]1C | 3.45 | 50 (≈ 120 µM) | – | 21.1 | – | 57 | IC50 (MCF7; [4]): 39.6 µM
C=C(C)[C@@]12O[C@@H]1[C@@]1(C)C(=CC2=O)CC[C@@H](OC(C)=O)[C@@H]1C | 4.55 | – | Not Active | 7.51 | inactive | 35.7 | –
CC[C@@H](CO)NCCN[C@@H](CC)CO [ETHAMBUTOL] | – | 0.983 (≈ 4.81 µM) | – | – | – | – | –
CO[C@H]1/C=C/O[C@@]2(C)Oc3c(C)c(O)c4c(O)c(c(/C=N/N5CCN(C)CC5)c(O)c4c3C2=O)NC(=O)/C(C)=C\C=C\[C@H](C)[C@H](O)[C@@H](C)[C@@H](O)[C@@H](C)[C@H](OC(C)=O)[C@@H]1C [RIFAMPIN] | – | 0.025 (≈ 0.0304 µM) | – | – | – | – | –
CC/C(=C(\c1ccccc1)c1ccc(OCCN(C)C)cc1)c1ccccc1 [TAMOXIFEN] | – | – | – | – | – | – | IC50 (MCF7; [4]): 18.7 µM
COc1cccc2c1C(=O)c1c(O)c3c(c(O)c1C2=O)C[C@@](O)(C(=O)CO)C[C@@H]3O[C@H]1C[C@H](N)[C@H](O)[C@H](C)O1 [DOXORUBICIN] | – | – | – | – | – | 0.91 | IC50 (MCF7; [4]): 11.5 µM
Cc1c2ccncc2c(C)c2c1[nH]c1ccccc12 [ELLIPTECINE] | – | – | – | 3.8 | – | 1.98 | –
CN[C@@H]1[C@H](O[C@H]2[C@H](O[C@H]3[C@H](O)[C@@H](O)[C@H](N=C(N)N)[C@@H](O)[C@@H]3N=C(N)N)O[C@@H](C)[C@]2(O)C=O)O[C@@H](CO)[C@H](O)[C@H]1O [STREPTOMYCIN] | – | 0.625 (≈ 1.07 µM) | – | – | – | – | –
C=C(CO)[C@@H]1C[C@@]2(C)C(=CC1=O)CC[C@@H](O)[C@@H]2C | – | – | Not Active | 56.2 | inactive | – | IC50 (KB; kb): Not Active; IC50 (Plasmodium falciparum): Not Active
C=C(C)C1=C[C@@]2(C)C(=CC1=O)CC[C@@H](O)[C@@H]2C | 15.7 | – | Not Active | 34.6 | inactive | – | IC50 (KB; kb): Not Active
CC1COc2c(N3CCN(C)CC3)c(F)cc3c(=O)c(C(=O)O)cn1c23 (stereo unspecified) [OFLOXACIN] | – | 0.391 (≈ 1.08 µM) | – | – | – | – | –
C=C(CO)[C@@]12O[C@@H]1[C@@]1(C)C(=CC2=O)CC[C@@H](O)[C@@H]1C | 5.41 | – | Not Active | 6.05 | inactive | 31.8 | –
